The numbers were not newly measured in patent US7452871B2, “Compositions and methods for treating mammals with modified alginates and modified pectins” (EcoNugenics, Inc., priority 1999, dated 2008), which cites them from elsewhere.

For data set [1] the following is noted: rats.
The conditions of data set [2]: rats. The source holds these as a separate data set.
The next data set has as its system cancer metastasis. The conditions noted are these: modified citrus pectin: oral administration.

For AG-10, the cholesterol excretion entry in data set [1] was “enhanced cholesterol secretion”. Besides, the “blood glucose levels after glucose administration” value in data set [2] is recorded as “inhibited blood glucose levels from rising”.

modified citrus pectin: in the data set on cancer metastasis, the “suppressing or preventing metastases” value is “may be effective in suppressing or preventing metastases”.

Consider AG-270, for which the cholesterol excretion entry in data set [1] is on record as “enhanced cholesterol secretion”. The “blood glucose levels after glucose administration” value in data set [2] is listed as “inhibited blood glucose levels from rising”.
